Measured values reported in US20260071220A1, “CONJUGATE OF NUCLEOTIDE ANALOG-CONTAINING DOUBLE-STRANDED RNAI ANALOG” (BaseCure Therapeutics LLC, priority 2022, published 2026).

Assays:
Settings in all cases: 24 h, positive control
hTLR3 = molecular target: T1, hTLR3 (Homo sapiens, UniProt O15455); experiment: Agonistic activity on hTLR3 cells (HEK BLUE, QUANTI-Blue OD650); format: cell-based
T1 construct: host or cells: HEK BLUE hTLR3 (HEK293-derived SEAP reporter line)
T1 sequence (O15455 24-904): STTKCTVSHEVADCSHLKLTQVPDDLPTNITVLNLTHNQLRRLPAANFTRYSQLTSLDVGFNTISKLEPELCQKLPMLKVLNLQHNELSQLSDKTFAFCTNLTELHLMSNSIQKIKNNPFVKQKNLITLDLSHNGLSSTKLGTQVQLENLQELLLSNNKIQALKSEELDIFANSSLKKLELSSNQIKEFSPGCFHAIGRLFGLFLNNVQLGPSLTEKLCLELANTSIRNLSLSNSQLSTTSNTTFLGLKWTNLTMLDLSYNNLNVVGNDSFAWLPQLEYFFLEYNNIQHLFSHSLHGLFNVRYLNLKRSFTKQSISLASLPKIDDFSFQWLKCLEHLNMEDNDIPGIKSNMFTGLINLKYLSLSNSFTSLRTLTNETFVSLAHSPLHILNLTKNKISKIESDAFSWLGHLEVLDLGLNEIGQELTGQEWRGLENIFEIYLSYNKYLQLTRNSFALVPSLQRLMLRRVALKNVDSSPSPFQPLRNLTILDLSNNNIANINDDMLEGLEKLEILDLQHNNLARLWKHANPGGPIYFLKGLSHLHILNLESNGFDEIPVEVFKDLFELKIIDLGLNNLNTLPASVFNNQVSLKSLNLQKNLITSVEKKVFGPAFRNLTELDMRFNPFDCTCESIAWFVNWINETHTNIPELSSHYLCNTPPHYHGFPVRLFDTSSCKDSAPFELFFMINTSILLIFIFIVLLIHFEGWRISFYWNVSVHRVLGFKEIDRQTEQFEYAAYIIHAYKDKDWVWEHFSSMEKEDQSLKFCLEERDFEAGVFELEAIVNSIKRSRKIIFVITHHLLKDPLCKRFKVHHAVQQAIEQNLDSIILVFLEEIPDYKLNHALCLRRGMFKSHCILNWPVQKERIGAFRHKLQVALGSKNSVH
Procedure: (§1) 1) The conjugate of the present invention was diluted to a concentration that was 20 times a final concentration, the diluted conjugate was mixed with RNAiMAX-OPTI MEM (RNAiMAX:OPTI MEM=3:47) at a ratio of 1:1 and incubated for 15 min at room temperature.
(§2) 2) 10 μL of incubated conjugate of the present invention was added into a corresponding cell plate, with 10 concentrations in total, a maximum concentration being 200 nM, and double duplicated wells for each concentration.
10 μL of 0.5 μM BLOCK-iT™ Alexa Fluor® Red Fluorescent Control was added into 2 transfection positive control wells.
(§3) 4) 90 μL of cells were seeded into a 96-well plate with the conjugate at the density of 50,000 cells/well.
(§4) 5) The conjugate of the present invention and the cells were co-incubated for 24 h in an incubator under the conditions of 37° C. and 5% CO2.
7) Compound activity detection: 20 μL of cell supernatant was taken from each well and added into an experimental plate containing 180 μL of QUANTI-Blue™ reagent and then incubated for 1 h at 37° C., followed by detecting an absorbance values at 650 nm (OD650) using the multifunctional microplate reader Flexstation III.
(§5) Compound activity: the OD650 values were analyzed using GraphPad Prism software, and a dose effect curve of the compound was fit, and the EC50 value of the compound was calculated. Cell activity detection: the calculation formula of cell activity % was as follows. The cell activity % value was analyzed using GraphPadPrism software, the dose effect curve of the compound was fit, and the CC50 value of the compound on cell was calculated.

HEK BLUE hTLR3 = experiment: Cell activity detection (CellTiter-Glo) in hTLR3 cells; format: cell-based, human
Procedure: as §1, §2, §3, §4
(§6) 8) Cell activity detection: the operation was carried out according to the method in the Celltiter-Glo specification, and a chemiluminescence signals (RLU) were detected using the multifunctional microplate reader Flexstation III.
as §5

HEK BLUE hTLR7 = experiment: Cell activity detection (CellTiter-Glo) in hTLR7 cells; format: cell-based, human
Procedure: as §1, §2, §3, §4, §6, §5

HEK BLUE hTLR8 = experiment: Cell activity detection (CellTiter-Glo) in hTLR8 cells; format: cell-based, human
Procedure: as §1, §2, §3, §4, §6, §5

| EC50 (hTLR3) [µg/mL] | Compound | CC50 (HEK BLUE hTLR3) [µg/mL] | CC50 (HEK BLUE hTLR7) [µg/mL] | CC50 (HEK BLUE hTLR8) [µg/mL] |
| --- | --- | --- | --- | --- |
| 0.05943 | Poly (I:C) HMW [Poly(I:C) HMW, reference compound] | >2 | – | – |
| – | CCOCc1nc2c(N)nc3ccccc3c2n1CC(C)(C)O [Conjugate R848, R848, reference compound] | – | >10 | >10 |
